Measured values from US5714467A, “Antibacterial and antimalarial hybrid peptides” (The Rockefeller University, priority 1993, dated 1998).
Where no end group is shown, it is not given here.

Columns and labels:
[1] = test system: Plasmodium falciparium strain F32 (Tanzania), blood stream forms; test: inhibition of reinvasion of human red cells by malaria parasite; assay type: cell-based, Plasmodium falciparum; conditions: Table 4, P. falciparum; read-out: 50% Reinvasion Inhibition
Procedure: Hybrid peptides CA(1-13)M(1-13) and CA(1-8)M(1-18) were prepared as described above (see Examples 1-6) and were assayed for activity against the blood stream form of Plasmodium falciparium. For comparison the test included cecropins A and B and the frog skin peptides magainin 2 and PGLa.
The blood stream forms of the malaria parasite Plasmodium falciparium, primarily late trophozoites and early schizonts, were assayed by recording the inhibition of the reinvasion of human red cells by the method of Wahlin, B., et al, (1984) Proc. Nat'l Acad. Sci. USA 81, 7912-16, incorporated herein by reference. Quadruplicate microcultures of strain F32 (Tanzania) were incubated for 20 hrs at 37° C. in a complete tissue culture medium, with or without different concentrations of the peptides to be assayed. After acridine orange staining, the percentage of newly infected red cells was scored in a fluorescence microscope. For each culture 40,000 red cells were analysed for parasitic infection. Duplicate assays were run for CA(1-13)M(1-13).

Sheep Red Cells = test: lysis of sheep red blood cells (lysis assay or SRC plate assay); assay type: cell-based; conditions: for concentration lytic to sheep red blood cells: running text
Procedure: These values were obtained by either the lysis assay normally used for melittin or by an adaptation of the antibacterial inhibition zone assay of the above-cited Hultmark et al articles to plates with sheep red cells (SRC). With respect to the latter, sterile agarose plates contained 6 ml of medium With 1% agarose, 0.9% NaCl and 10% SRC suspended in Alsevers solution. A dilution series of peptide was applied in 3 mm wells each loaded with 3 μl of the respective samples. The plates were incubated at 30° C. for 24 h, the zones were recorded and LC values calculated as described in the Hultmark et al articles. Clear zones were recorded after a few hours of incubation and the use of such data gave an LC value of the same order as readings after 24 h. This plate assay is faster and more convenient than the lysis assay normally used for melittin.

Bacillus subtilis Bs11 = test: inhibition zone assay, lethal concentration; assay type: cell-based; conditions: Table 2, footnote c: incubation overnight at 37° C.
Procedure: (§1) The products of the invention were tested for activity against a variety of test organisms selected to represent a number of different types of pathogens some of them known to be particularly virulent by the inhibition zone assay of Hoffmann et al (1981) Insect Biochem. 11 537-548 which is incorporated herein by reference. Thin agar or agarose plates (8.5 cm diameter) were prepared with 6 ml of rich medium containing 100 ug/ml of streptomycin and 2×10^5 viable cells of a test organism resistant to streptomycin. Wells of […] diameter were punched in the plates and 3 ul of serially diluted samples were placed in the wells. The diameters of the zones of inhibition around the wells were measured after overnight incubation at 30° or 37° C. For each peptide the squares of the zone diameters were plotted against the logarithm of the concentration, and from the slopes and intercepts the lethal concentrations were calculated as described by Hultmark (1983) EMBO J. 2, 571-76 or Hultmark et al (1982) Eur. J. Biochem. 127 207-217 each of which being incorporated herein by reference.
(§2) It was observed during testing that basic peptides often bind to agar plates, but not so much to agarose. Therefore those lethal concentrations determined on agar may, in fact, be substantially higher than the actual lethal concentrations.
(§3) Novel peptides CA(1-8)M(1-18), CA(1-9)M(1-17), CB(1-13)M(1-13), CA(1-17)M(1-9), CA(1-18)M(1-8), M(1-13)CA(1-22) and M(1-13)CA(1-13) were prepared as described above (see Examples 1-6). These novel peptides and CA, CB, and M were tested for activity against a variety of organisms selected to represent a number of different types of pathogens, some of them known to be particularly virulent by the inhibition zone assay of Hoffmann et al (1981), Insect Biochem. 11 537-48. As in Examples 1-6, thin agarose plates were prepared with the respective organisms. The diameters of the zones of inhibition were measured after overnight incubation at 30° C. The lethal concentrations were determined as described above (see Examples 1-6; Hultmark et al articles cited thereat).

Escherichia coli D21 = test: inhibition zone assay, lethal concentration; assay type: cell-based; conditions: Table 2, footnote c: incubation overnight at 37° C.
Procedure: as §1, §2, §3

[2] = test system: Pseudomonas aeruginosa OT97; test: inhibition zone assay, lethal concentration; assay type: cell-based; conditions: Table 2, footnote c: incubation overnight at 37° C.
Procedure: as §1, §2, §3

Bacillus megaterium BM11 = test: inhibition zone assay, lethal concentration; assay type: cell-based; conditions: Table 2, footnote c: incubation overnight at 37° C.
Procedure: as §1, §2

Escherichia coli D22 = test: inhibition zone assay, lethal concentration; assay type: cell-based; conditions: Table 2, footnote c: incubation overnight at 37° C.
Procedure: as §1, §2

Micrococcus luteus Ml11 = test: inhibition zone assay, lethal concentration; assay type: cell-based; conditions: Table 2, footnote c: incubation overnight at 37° C.
Procedure: as §1, §2

magainin 2
IC50 [1]: 80 µM

CC[C@H](C)[C@H](NC(=O)[C@H](CCC(N)=O)NC(=O)[C@@H](NC(=O)[C@H](C)NC(=O)[C@H](CCC(N)=O)NC(=O)CNC(=O)[C@@H](NC(=O)[C@@H](NC(=O)[C@H](C)NC(=O)[C@@H](NC(=O)[C@H](C)N)C(C)C)C(C)C)C(C)C)[C@@H](C)O)C(=O)N[C@@H](C)C(=O)N[C@@H](CCCCN)C(=O)N[C@@H](CCCCN)C(=O)N[C@@H](Cc1c[nH]c2ccccc12)C(=O)N[C@@H](CCCCN)C(=O)N[C@@H](CC(C)C)C(=O)N[C@@H](Cc1ccccc1)C(=O)N[C@@H](CCCCN)C(=O)N[C@@H](CCCCN)C(=O)N[C@H](C(=O)N[C@@H](CCC(=O)O)C(=O)N[C@@H](CCCCN)C(=O)N[C@H](C(=O)NCC(=O)N[C@@H](CCC(N)=O)C(N)=O)C(C)C)[C@@H](C)CC [CA(25-37)CA(1-13)]
Lethal concentration, Sheep Red Cells (Sheep Red Cells; Table 2, footnote b: incubation overnight at 30° C.): > 300 µM

CC[C@H](C)[C@H](NC(=O)CNC(=O)[C@H](CCC(N)=O)NC(=O)CNC(=O)[C@@H](NC(=O)[C@H](CCCCN)NC(=O)[C@H](CCC(=O)O)NC(=O)[C@@H](NC(=O)[C@H](CCCCN)NC(=O)[C@H](CCCCN)NC(=O)[C@H](Cc1ccccc1)NC(=O)[C@H](CC(C)C)NC(=O)[C@H](CCCCN)NC(=O)[C@H](Cc1c[nH]c2ccccc12)NC(=O)[C@@H](N)CCCCN)[C@@H](C)CC)C(C)C)C(=O)NCC(=O)N[C@@H](C)C(=O)N[C@H](C(=O)N[C@@H](CC(C)C)C(=O)N[C@@H](CCCCN)C(=O)N[C@H](C(=O)N[C@@H](CC(C)C)C(=O)N[C@H](C(=O)N[C@H](C(=O)NCC(=O)N[C@@H](CC(C)C)C(N)=O)[C@@H](C)O)[C@@H](C)O)C(C)C)C(C)C [CA(1-13)M(1-13)]
Lethal concentration, Sheep Red Cells (Sheep Red Cells; Table 2, footnote a: incubation overnight at 30° C. as well as at 37° C.): > 200 µM | concentration lytic to sheep red blood cells (Sheep Red Cells): ≥ 100 µM | concentration lytic to sheep red blood cells (Sheep Red Cells; listed as CA(1-13) M(1-13)): greater than 200 μM

WNPFKELEKVGQRVRDAVISAGPAVATVAQATALAK-NH2 [CD(2-37), Cecropin D]
Lethal concentration, Bacillus subtilis Bs11 (Bacillus subtilis Bs11): 100 µM | Lethal concentration, Escherichia coli D21 (Escherichia coli D21): 3.6 µM | Lethal concentration, Pseudomonas aeruginosa OT97 [2]: 90 µM | Lethal concentration, Bacillus megaterium BM11 (Bacillus megaterium BM11): 30 µM | Lethal concentration, Escherichia coli D22 (Escherichia coli D22): 0.6 µM | Lethal concentration, Micrococcus luteus Ml11 (Micrococcus luteus Ml11): 12 µM

CC[C@H](C)[C@H](NC(=O)CNC(=O)[C@H](CCCNC(=N)N)NC(=O)CNC(=O)[C@H](CCSC)NC(=O)[C@H](CCCCN)NC(=O)[C@H](CCC(=O)O)NC(=O)[C@@H](NC(=O)[C@H](CCCCN)NC(=O)[C@H](CCCCN)NC(=O)[C@H](Cc1ccccc1)NC(=O)[C@@H](NC(=O)[C@H](CCCCN)NC(=O)[C@H](Cc1c[nH]c2ccccc12)NC(=O)[C@@H](N)CCCCN)C(C)C)[C@@H](C)CC)C(=O)NCC(=O)N[C@@H](C)C(=O)N[C@H](C(=O)N[C@@H](CC(C)C)C(=O)N[C@@H](CCCCN)C(=O)N[C@H](C(=O)N[C@@H](CC(C)C)C(=O)N[C@H](C(=O)N[C@H](C(=O)NCC(=O)N[C@@H](CC(C)C)C(N)=O)[C@@H](C)O)[C@@H](C)O)C(C)C)C(C)C [CB(1-13)M(1-13)]
Lethal concentration, SRC = Sheep Red Cells (Sheep Red Cells; Table 3): 400 µM
